Laboratory results published in PubChem BioAssay AID1963829 (Molecular Pharmacology Branch, DTP, NCI, 2024).

Test system: 935938-334-R-J1-PDC complex spheroid viability
Assay: Anticancer human tumor 935938-334-R-J1-PDC patient-derived small intestine adenocarcinoma cell line growth inhibition [POLQ]
Conditions: for IC50: curve of first compound; for viability, T/C: stronger effect = lower value; active = viability on the fitted dose curve at most 10% of control; inactive = the rest
Method in brief: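 Complex spheroid viability model combining PDC tumour cells with endothelial (HUVEC) and MSC stromal cells. Novobiocin, ART-558 or RP6685 were tested singly and in combination with standard and investigational anticancer drugs. Each was titrated in half-log steps from near clinical Cmax, or from 10 microM where Cmax was unknown.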

[1] = second compound 0.0316 µM, first compound 0.00316 µM
[2] = second compound 0.0316 µM, first compound 0.01 µM
[3] = second compound 0.0316 µM, first compound 0.0316 µM
[4] = second compound 0.0316 µM, first compound 0.1 µM
[5] = second compound 0.0316 µM, first compound 0.316 µM
[6] = second compound 0.0316 µM, first compound 1 µM
[7] = second compound 0.1 µM, first compound 0.00316 µM
[8] = second compound 0.1 µM, first compound 0.01 µM
[9] = second compound 0.1 µM, first compound 0.0316 µM
[10] = second compound 0.1 µM, first compound 0.1 µM
[11] = second compound 0.1 µM, first compound 0.316 µM
[12] = second compound 0.1 µM, first compound 1 µM
[13] = second compound 0.316 µM, first compound 0.00316 µM
[14] = second compound 0.316 µM, first compound 0.01 µM
[15] = second compound 0.316 µM, first compound 0.0316 µM
[16] = second compound 0.316 µM, first compound 0.1 µM
[17] = second compound 0.316 µM, first compound 0.316 µM
[18] = second compound 0.316 µM, first compound 1 µM
[19] = second compound 1 µM, first compound 0.00316 µM
[20] = second compound 1 µM, first compound 0.01 µM
[21] = second compound 1 µM, first compound 0.0316 µM
[22] = second compound 1 µM, first compound 0.1 µM
[23] = second compound 1 µM, first compound 0.316 µM
[24] = second compound 1 µM, first compound 1 µM
[25] = second compound 3.16 µM, first compound 0.00316 µM
[26] = second compound 3.16 µM, first compound 0.01 µM
[27] = second compound 3.16 µM, first compound 0.0316 µM
[28] = second compound 3.16 µM, first compound 0.1 µM
[29] = second compound 3.16 µM, first compound 0.316 µM
[30] = second compound 3.16 µM, first compound 1 µM
[31] = second compound 10 µM, first compound 0.00316 µM
[32] = second compound 10 µM, first compound 0.01 µM
[33] = second compound 10 µM, first compound 0.0316 µM
[34] = second compound 10 µM, first compound 0.1 µM
[35] = second compound 10 µM, first compound 0.316 µM
[36] = second compound 10 µM, first compound 1 µM
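Note: spheroids exposed to drugs for seven days before viability read.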
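Throughout, for viability, T/C: 100% = DMSO vehicle control wells.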

CCc1c2c(nc3ccc(O)cc13)-c1cc3c(c(=O)n1C2)COC(=O)[C@]3(O)CC + Cc1cccc(N(C)C(=O)C2C(O)CCN2c2nc(C)cc(C(F)(F)F)c2C#N)c1
15.8 nM: IC50 (second compound 0.0316 µM)
24.5 nM: IC50 (second compound 0.316 µM)
24.3 nM: IC50 (second compound 3.16 µM)
26.1 nM: IC50 (second compound 10 µM)
22.7 nM: IC50 (second compound 1 µM)
inactive: viability, T/C [1] 96.3% | viability, T/C [2] 55.6% | viability, T/C [3] 41.4% | viability, T/C [4] 33.8% | viability, T/C [5] 36.6% | viability, T/C [6] 29.1% | viability, T/C [7] 98.1% | viability, T/C [8] 66.6% | viability, T/C [9] 38.9% | viability, T/C [10] 32.5% | viability, T/C [11] 33.4% | viability, T/C [12] 32.4% | viability, T/C [13] 109% | viability, T/C [14] 83% | viability, T/C [15] 40.7% | viability, T/C [16] 34% | viability, T/C [17] 38.3% | viability, T/C [18] 35.4% | viability, T/C [19] 82.9% | viability, T/C [20] 63.2% | viability, T/C [21] 43.5% | viability, T/C [22] 36.6% | viability, T/C [23] 33.3% | viability, T/C [24] 29.2% | viability, T/C [25] 87.6% | viability, T/C [26] 85.3% | viability, T/C [27] 39.4% | viability, T/C [28] 37.7% | viability, T/C [29] 39.3% | viability, T/C [30] 31.7% | viability, T/C [31] 115% | viability, T/C [32] 66.9% | viability, T/C [33] 43.2% | viability, T/C [34] 45.9% | viability, T/C [35] 35% | viability, T/C [36] 31.5%
19.9 nM: IC50 (second compound 0.1 µM)

CC[C@@]1(O)C(=O)OCc2c1cc1n(c2=O)Cc2cc3c(CN(C)C)c(O)ccc3nc2-1 + COC1C(OC(N)=O)C(O)C(Oc2ccc3c(O)c(NC(=O)c4ccc(O)c(CC=C(C)C)c4)c(=O)oc3c2C)OC1(C)C
> 100 nM: IC50 (second compound 0.0316 µM) | IC50 (second compound 10 µM)
90.3 nM: IC50 (second compound 1 µM)
93.3 nM: IC50 (second compound 0.316 µM)
80.8 nM: IC50 (second compound 0.1 µM)
91.5 nM: IC50 (second compound 3.16 µM)
inactive: viability, T/C (second compound 0.0316 µM, first compound 0.000316 µM) 90.7% | viability, T/C (second compound 0.0316 µM, first compound 0.001 µM) 81.6% | viability, T/C [1] 98.1% | viability, T/C [2] 92.1% | viability, T/C [3] 86.1% | viability, T/C [4] 56.5% | viability, T/C (second compound 0.1 µM, first compound 0.000316 µM) 94.2% | viability, T/C (second compound 0.1 µM, first compound 0.001 µM) 81.4% | viability, T/C [7] 100% | viability, T/C [8] 90.9% | viability, T/C [9] 79% | viability, T/C [10] 43% | viability, T/C (second compound 0.316 µM, first compound 0.000316 µM) 94.7% | viability, T/C (second compound 0.316 µM, first compound 0.001 µM) 72.9% | viability, T/C [13] 103% | viability, T/C [14] 97.7% | viability, T/C [15] 94.8% | viability, T/C [16] 47.2% | viability, T/C (second compound 1 µM, first compound 0.000316 µM) 109% | viability, T/C (second compound 1 µM, first compound 0.001 µM) 83.1% | viability, T/C [19] 76.4% | viability, T/C [20] 74.8% | viability, T/C [21] 97.3% | viability, T/C [22] 46.3% | viability, T/C (second compound 3.16 µM, first compound 0.000316 µM) 127% | viability, T/C (second compound 3.16 µM, first compound 0.001 µM) 76.6% | viability, T/C [25] 79.3% | viability, T/C [26] 77% | viability, T/C [27] 104% | viability, T/C [28] 46.4% | viability, T/C (second compound 10 µM, first compound 0.000316 µM) 109% | viability, T/C (second compound 10 µM, first compound 0.001 µM) 133% | viability, T/C [31] 89.3% | viability, T/C [32] 67.2% | viability, T/C [33] 71.7% | viability, T/C [34] 49.3%

CC(C)n1c(=O)n(C)c2cnc3cc(F)c(-c4ccc(OCCCN5CCCCC5)nc4)cc3c21 + COC1C(OC(N)=O)C(O)C(Oc2ccc3c(O)c(NC(=O)c4ccc(O)c(CC=C(C)C)c4)c(=O)oc3c2C)OC1(C)C
> 10000 nM: IC50 (second compound 0.0316 µM) | IC50 (second compound 0.1 µM) | IC50 (second compound 0.316 µM) | IC50 (second compound 1 µM) | IC50 (second compound 3.16 µM) | IC50 (second compound 10 µM)
inactive: viability, T/C [3] 124% | viability, T/C [4] 124% | viability, T/C [5] 108% | viability, T/C [6] 95.4% | viability, T/C (second compound 0.0316 µM, first compound 3.16 µM) 138% | viability, T/C (second compound 0.0316 µM, first compound 10 µM) 133% | viability, T/C [9] 123% | viability, T/C [10] 109% | viability, T/C [11] 79% | viability, T/C [12] 135% | viability, T/C (second compound 0.1 µM, first compound 3.16 µM) 139% | viability, T/C (second compound 0.1 µM, first compound 10 µM) 92.8% | viability, T/C [15] 98% | viability, T/C [16] 105% | viability, T/C [17] 118% | viability, T/C [18] 119% | viability, T/C (second compound 0.316 µM, first compound 3.16 µM) 108% | viability, T/C (second compound 0.316 µM, first compound 10 µM) 85.2% | viability, T/C [21] 81.3% | viability, T/C [22] 117% | viability, T/C [23] 99.3% | viability, T/C [24] 113% | viability, T/C (second compound 1 µM, first compound 3.16 µM) 104% | viability, T/C (second compound 1 µM, first compound 10 µM) 120% | viability, T/C [27] 95% | viability, T/C [28] 115% | viability, T/C [29] 89.6% | viability, T/C [30] 117% | viability, T/C (second compound 3.16 µM, first compound 3.16 µM) 106% | viability, T/C (second compound 3.16 µM, first compound 10 µM) 90.3% | viability, T/C [33] 94.4% | viability, T/C [34] 135% | viability, T/C [35] 122% | viability, T/C [36] 160% | viability, T/C (second compound 10 µM, first compound 3.16 µM) 133% | viability, T/C (second compound 10 µM, first compound 10 µM) 101%
